Experimental data: article PMC12216609, “Inhibitors of eIF1A-ribosome interaction unveil uORF-dependent regulation of translation initiation and antitumor and antiviral effects” (The EMBO Journal, 2025)
Where “and” joins values, the source holds several entries; their conditions need not be identical. Equal entries are not always repeated.

Key:
[1] = test system: CUG/GUG vs AUG start codon luciferase reporters in HEK293T cells; assay: Near-cognate AUG starting codon fidelity reporter assay (GUG, CUG vs AUG); assay type: cell-based
[2] = test system: IRF7 5'UTR firefly luciferase reporter in HEK293T cells;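 further: luciferase signal corrected by a co-transfected GFP reporter for transfection efficiency, read after overnight compound exposure, with Long and Short reporters differing in 5'UTR length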
[3] = test system: regulatory CUG of SARS-CoV-2 ORF7a 5'UTR in HEK293T cells; assay type: cell-based

O=c1cc(CN2CCOCC2)occ1OCCCCCSc1ccnc2cc(C(F)(F)F)ccc12 [1Ai-5730]
CUG vs AUG (%) ([1]; CUG start codon reporter relative to AUG reporter (AUG = 100), compound at 10uM (summary head), single-experiment calculation): 9.994%
GUG vs AUG (%) ([1]; GUG start codon reporter relative to AUG reporter (AUG = 100), compound at 10uM (summary head), single-experiment calculation): 3.756%
average CUG and GUG ([1]; NUG experiment): 3.9567
average CUG and GUG relative to DMSO ([1]; NUG experiment): 0.8773
CUG Average ([1]; NUG experiment, CUG vs AUG reporter): 6.145
GUG Average ([1]; NUG experiment, GUG vs AUG reporter): 1.768
NUG (Final data, Fig. 1E) ([1]; average CUG and GUG relative to DMSO, 20 µM overnight): 0.877
GUG vs AUG data (%) ([1]; compound at 10uM, individual repeat): 1.66% and 2.32% and 1.73% and 1.38%
GUG vs AUG (%) Average ([1]; compound at 10uM, summary average of repeats, DMSO control average […]): 1.77%
Reference vs IRF7 (Final data, Fig. 1E) ([2]; 1/Result, relative to DMSO, 20 µM): 1.720
LONG (summary - All), normalized to DMSO ([2]; Long reporter, 10 µM, individual replicates, outliers excluded, DMSO = 1): 0.65 and 0.52 and 0.40 and 0.70
SHORT (summary - All), normalized to DMSO ([2]; Short reporter, 10 µM, individual replicates, outliers excluded, DMSO = 1): 0.89 and 1.17 and 0.87
Long 5'UTR reporter luciferase activity, normalized to DMSO (=1), single replicates ([2]; compound at 10 µM, left data block (Long), source data of Fig 1C): 0.6956
Short: Normalized to average DMSO ([2]; data section, Short reporter, GFP-corrected, 10 µM, per experiment): 0.892 and 1.021 and 1.1679
average ( long vs short ratio) ([2]; summary - All, 10 µM): 0.581
average (inverted) ([3]; normalized to DMSO = 1.000, mean of 3 reps): 0.744
CUG/AUG ratio (Renilla/firefly) ([3]; overnight): decreased the CUG/AUG ratio to variable degrees
FF CTG signal, mean of duplicates ([3]; reps 1-3): 5472.4 and 6803.94 and 6446.76
FF vs Rluc ([3]; reps 1-3): 54.969 and 55.654 and 55.147
FF vs Rluc, inverted ([3]; reps 1-3): 0.018
Rluc ATG signal, mean of duplicates ([3]; reps 1-3): 2604320 and 3030300 and 3158315
normalized to DMSO ([3]; reps 1-3, DMSO = 1): 0.748 and 0.739 and 0.745
